Measurements taken from US20250268884A1, “Deuterated Domperidone for Treating Gastroparesis” (CinDome Pharma, Inc., priority 2022, published 2025).
Read-outs that look alike come from different tables or passages of the source.

Tests used:
[1] = tested on: adults with idiopathic or diabetic gastroparesis; conditions: in vivo
Procedure: Safety was evaluated through assessments of Aes, vital signs, physical examinations, clinical laboratory evaluations (including prolactin), and ECG findings. Additionally, a single, optional PGx blood sample may have been collected at any time during the subject's participation in the study.
Safety variables included Aes, clinical laboratory results (including prolactin), vital signs, ECGs, and physical examination findings.

[2] = for AUC% extrap / CL/F / RAUC / RCmax / λz: Day 14 (steady state), mean
Procedure: The following PK parameters were calculated for deuterated domperidone from plasma concentrations (Day 1) using a noncompartmental method, if the data permitted: • Cmax determined directly from the concentration-time profile.
[formula] • λz calculated from a semi-logarithmic plot of the plasma concentration versus time curve. The parameter was calculated by linear least-squares regression analysis using points in the terminal logarithmic-linear phase; • T½ calculated as natural logarithm (2)/λz; • CL/F calculated as Dose/AUC0-∞; • Vz/F calculated as Dose/(λz×AUC0-∞); • Rcmax calculated as Cmax on Day 14/Cmax on Day 1; and • RAUC calculated as AUCtau on Day 14/AUCtau on Day 1.

[3] = tested on: adults with idiopathic or diabetic gastroparesis; assay: 12-lead ECG QTcF safety assessment, Phase 2a; format: in vivo, human
Procedure: Safety was evaluated through assessments of Aes, vital signs, physical examinations, clinical laboratory evaluations (including prolactin), and ECG findings.

[4] = tested on: adults with idiopathic or diabetic gastroparesis; assay: PAGI-SYM questionnaire total and subscale scores, Phase 2a; format: in vivo, human; conditions: mean, Safety Population
Procedure: Subjects were Evaluated as Follows: • Days −28 to −11: Screening procedures were performed. The ANMS GCSI-DD questionnaire was completed daily for at least 14 days prior to randomization (Day 1); • Days −10 to −3: The ANMS GCSI-DD questionnaire was completed daily. A GEBT was performed on a single day within this window, with breath samples obtained twice prior to consumption of a standardized, carbon-13 (^13C)-enriched meal and then at 45, 90, 120, 150, 180, and 240 minutes after meal consumption after an 8-hour fast. […] On Day 14 (±2 days), the PAGI-SYM and Clinical Grading Assessment questionnaires were completed prior to the final dose of study drug. • A GEBT was administered 30 minutes after study drug administration on Day 14 (±2 days). Breath samples were obtained twice prior to ^13C-enriched meal consumption and then at 45, 90, 120, 150, 180, and 240 minutes after meal consumption after an 8-hour fast. If a subject withdrew from the study prior to the Day 14 (±2 days) GEBT, attempts should have been made to perform a GEBT on the last day of study drug administration. Clinical Grading Assessment Scales were also performed.
The PAGI-SYM includes 6 subscales: heartburn/regurgitation, fullness/early satiety, nausea/vomiting, bloating, upper abdominal pain, and lower abdominal pain.

## [2H]c1c([2H])c([2H])c2c([nH]c(=O)n2CCCN2CCC(n3c(=O)[nH]c4cc(Cl)ccc43)CC2)c1[2H] [Deudomperidone, 1-{3-[4-(5-chloro-2-oxo-2,3-dihydro-1H-1,3-benzodiazol-1-yl)piperidin-1yl]propyl}-2,3-dihydro(4,5,6,7-D4)-1H-1,3-benzodiazol-2-one]
[1]
  tolerability of multiple doses: generally well tolerated
[2]; 5 mg BID
  AUC% extrap: 11.72%
  CL/F: 48.394 L/h
  RAUC: 1.653
  RCmax: 1.838
  λz: 0.0413 h⁻¹
[2]; 10 mg BID
  AUC% extrap: 9.31%
  CL/F: 69.640 L/h
  RAUC: 2.430
  RCmax: 2.179
  λz: 0.0454 h⁻¹
[2]; 20 mg QD
  AUC% extrap: 8.48%
  CL/F: 55.317 L/h
  RAUC: 2.011
  RCmax: 2.620
  λz: 0.0454 h⁻¹
[2]; given dose level
  exposure (Cmax and AUC) in patients with gastroparesis compared to that expected from healthy subjects: approximately 2 fold
[3]; 10 mg BID, Day 14 at 4 hours post-dose
  subjects with ≥6% change from baseline in QTcF: 1 (3.6%) subjects (%)
[3]; 10 mg BID, Day 14 at 6 hours post-dose
  subjects with ≥6% change from baseline in QTcF: 1 (4.3%) subjects (%)
[3]; 20 mg QD, Day 14 at 4 hours post-dose
  subjects with ≥6% change from baseline in QTcF: 3 (20.0%) subjects (%)
[3]; 20 mg QD, Day 14 at 6 hours post-dose
  subjects with ≥6% change from baseline in QTcF: 2 (16.7%) subjects (%)
[3]; 1 subject, alert at 4 and 6 hours post-dose on Day 14
  QTcF of subject meeting alert criteria (never increased above): ≤ 426 ms
[3]; Day 7, baseline QTcF average 430 msec
  QTcF of second subject meeting alert criteria: 474 ms
[3]; all dose groups
  prolongations of the QTcF interval: no clinically meaningful prolongations
[4]; 5 mg BID
  PAGI-SYM bloating subscale score, Baseline: 3.67
  PAGI-SYM bloating subscale score, Change from baseline to Day 14: −1.00
  PAGI-SYM bloating subscale score, Day 14: 2.67
  PAGI-SYM bloating subscale score, Percent change from baseline to Day 14: −30.16%
  PAGI-SYM fullness/early satiety subscale score, Baseline: 3.89
  PAGI-SYM fullness/early satiety subscale score, Change from baseline to Day 14: −1.53
  PAGI-SYM fullness/early satiety subscale score, Day 14: 2.36
  PAGI-SYM fullness/early satiety subscale score, Percent change from baseline to Day 14: −38.04%
  PAGI-SYM heartburn/regurgitation subscale score, Baseline: 3.63
  PAGI-SYM heartburn/regurgitation subscale score, Change from baseline to Day 14: −1.79
  PAGI-SYM heartburn/regurgitation subscale score, Day 14: 1.84
  PAGI-SYM heartburn/regurgitation subscale score, Percent change from baseline to Day 14: −50.23%
  PAGI-SYM lower abdominal pain subscale score, Baseline: 3.11
  PAGI-SYM lower abdominal pain subscale score, Change from baseline to Day 14: −1.67
  PAGI-SYM lower abdominal pain subscale score, Day 14: 1.44
  PAGI-SYM lower abdominal pain subscale score, Percent change from baseline to Day 14: −52.08%
  PAGI-SYM nausea/vomiting subscale score, Baseline: 2.74
  PAGI-SYM nausea/vomiting subscale score, Change from baseline to Day 14: −1.00
  PAGI-SYM nausea/vomiting subscale score, Day 14: 1.74
  PAGI-SYM nausea/vomiting subscale score, Percent change from baseline to Day 14: −39.58%
  PAGI-SYM total score, Baseline: 3.37
  PAGI-SYM total score, Change from baseline to Day 14: −1.35
  PAGI-SYM total score, Day 14: 2.02
  PAGI-SYM total score, Percent change from baseline to Day 14: −40.13%
  PAGI-SYM upper abdominal pain subscale score, Baseline: 3.17
  PAGI-SYM upper abdominal pain subscale score, Change from baseline to Day 14: −1.11
  PAGI-SYM upper abdominal pain subscale score, Day 14: 2.06
  PAGI-SYM upper abdominal pain subscale score, Percent change from baseline to Day 14: −37.28%
[4]; 10 mg BID
  PAGI-SYM bloating subscale score, Baseline: 3.84
  PAGI-SYM bloating subscale score, Change from baseline to Day 14: −1.17
